The NIST ThermoML archive (doi:10.1016/j.jct.2008.05.006)
Where “and” joins values, the source holds several entries; their conditions need not be identical. Equal entries are not always repeated. ± gives the expanded uncertainty stated by the source.

Key:
[1] = for vapor or sublimation pressure: Calculated from knudsen effusion weight loss; for Triple point temperature: DTA
[2] = Molar enthalpy of transition or fusion; conditions: Crystal 3; DSC
[3] = molar heat capacity at constant pressure; conditions: 101.33 kPa, Small sample (50 mg) DSC

O=C1NC(=O)C(=O)N1 [parabanic acid]
Conditions | molar heat capacity at constant pressure [J/K/mol] | vapor or sublimation pressure
[1], 381.17 K, Crystal 3 | – | 0.0001133 ± 2e-05 kPa and 0.0001078 ± 2e-05 kPa
[1], 383.17 K, Crystal 3 | – | 0.0001373 ± 2.1e-05 kPa and 0.0001334 ± 2.1e-05 kPa
[1], 385.18 K, Crystal 3 | – | 0.0001672 ± 2.1e-05 kPa and 0.0001691 ± 2.1e-05 kPa and 0.000159 ± 2.1e-05 kPa
[1], 387.17 K, Crystal 3 | – | 0.0001972 ± 2.1e-05 kPa [middle of 4 runs]
[1], 389.17 K, Crystal 3 | – | 0.0002355 ± 2.2e-05 kPa and 0.0002336 ± 2.2e-05 kPa and 0.0002271 ± 2.2e-05 kPa
[1], 391.18 K, Crystal 3 | – | 0.000285 ± 2.2e-05 kPa and 0.000287 ± 2.2e-05 kPa
[1], 393.18 K, Crystal 2 | – | 0.0003353 ± 2.3e-05 kPa and 0.0003334 ± 2.3e-05 kPa
[1], 395.17 K, Crystal 2 | – | 0.0004133 ± 2.5e-05 kPa and 0.0004042 ± 2.5e-05 kPa
[1], 397.16 K, Crystal 2 | – | 0.0004877 ± 2.7e-05 kPa
[1], 397.18 K, Crystal 2 | – | 0.000484 ± 2.7e-05 kPa
[1], 399.17 K, Crystal 2 | – | 0.0005715 ± 2.9e-05 kPa
[1], 401.18 K, Crystal 2 | – | 0.0006635 ± 3.1e-05 kPa
[1], 403.17 K, Crystal 2 | – | 0.0008169 ± 3.5e-05 kPa
[1], 405.2 K, Crystal 2 | – | 0.0009469 ± 3.9e-05 kPa and 0.0009581 ± 3.9e-05 kPa
[1], 406.17 K, Crystal 2 | – | 0.001047 ± 8.2e-05 kPa and 0.001039 ± 8.1e-05 kPa
[3], 263.15 K, Crystal 3 | 153.78 ± 6.5 | –
[3], 265.15 K, Crystal 3 | 154.68 ± 6.6 | –
[3], 270.15 K, Crystal 3 | 157.16 ± 6.7 | –
[3], 273.15 K, Crystal 3 | 158.53 ± 6.7 | –
[3], 275.15 K, Crystal 3 | 159.48 ± 6.8 | –
[3], 280.15 K, Crystal 3 | 161.53 ± 6.8 | –
[3], 285.15 K, Crystal 3 | 163.59 ± 6.9 | –
[3], 290.15 K, Crystal 3 | 165.7 ± 7 | –
[3], 295.15 K, Crystal 3 | 167.6 ± 7.1 | –
[3], 300.15 K, Crystal 3 | 169.81 ± 7.2 | –
[3], 305.15 K, Crystal 3 | 172.08 ± 7.3 | –
[3], 310.15 K, Crystal 3 | 174.5 ± 7.4 | –
[3], 315.15 K, Crystal 3 | 177.24 ± 7.5 | –
[3], 320.15 K, Crystal 3 | 179.33 ± 7.6 | –
[3], 325.15 K, Crystal 3 | 180.62 ± 7.7 | –
[3], 330.15 K, Crystal 3 | 182.52 ± 7.7 | –
[3], 335.15 K, Crystal 3 | 184.84 ± 7.8 | –
[3], 340.15 K, Crystal 3 | 187.21 ± 7.9 | –
[3], 345.15 K, Crystal 3 | 189.26 ± 8 | –
[3], 350.15 K, Crystal 3 | 191.69 ± 8.1 | –
[3], 355.15 K, Crystal 3 | 193.8 ± 8.2 | –
[3], 360.15 K, Crystal 3 | 196.01 ± 8.3 | –
[3], 365.15 K, Crystal 3 | 197.59 ± 8.4 | –
[3], 370.15 K, Crystal 3 | 200.07 ± 8.5 | –
[3], 375.15 K, Crystal 3 | 201.42 ± 8.6 | –
[3], 380.15 K, Crystal 3 | 203.59 ± 8.6 | –
[3], 400.15 K, Crystal 2 | 211.5 ± 9 | –
[3], 405.15 K, Crystal 2 | 213.6 ± 9.1 | –
[3], 410.15 K, Crystal 2 | 215.93 ± 9.2 | –
[3], 415.15 K, Crystal 2 | 216.68 ± 9.2 | –
[3], 420.15 K, Crystal 2 | 218.83 ± 9.3 | –
[3], 425.15 K, Crystal 2 | 220.28 ± 9.3 | –
[3], 430.15 K, Crystal 2 | 222.89 ± 9.5 | –
[3], 435.15 K, Crystal 2 | 225.62 ± 9.6 | –
[3], 440.15 K, Crystal 2 | 227.43 ± 9.7 | –
[3], 445.15 K, Crystal 2 | 229.93 ± 9.8 | –
[3], 450.15 K, Crystal 2 | 232.06 ± 9.8 | –
[3], 455.15 K, Crystal 2 | 234.43 ± 9.9 | –
[3], 460.15 K, Crystal 2 | 236.96 ± 10 | –
[3], 465.15 K, Crystal 2 | 239.26 ± 10 | –
[3], 470.15 K, Crystal 2 | 241.31 ± 10 | –
[3], 473.15 K, Crystal 2 | 243.13 ± 10 | –

[1]
Conditions | Triple point temperature [K]
Crystal 1 | 520 ± 3
Crystal 2 | 509.8 ± 3
Crystal 3 | 392.3 ± 3.2

Conditions | Molar enthalpy of transition or fusion [kcal/mol]
[2] | 0.502 ± 0.191
